The source made the active and inactive calls.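 The calls were made as follows: active = compounds with a fitted EC50 of 33 micromolar or lower for the MEP2 GFP signal; inactive = the rest.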

System in the first assay: not listed separately
The assay can be described thus: yeast MEP2-GFP fusion level changes, TOR pathway – flow cytometry, kMESF, KU SAR set 2, dose response (AID 504468). The conditions noted are these: S. cerevisiae MEP2-GFP strain, flow cytometry fluorescence, 3 h; at 100 µM (top of the series). On the technique in general: In flow cytometry, cells or beads pass a laser one at a time.
As for `CNc1nc(N)c([N+](=O)[O-])c(Nc2cccc(OC)c2)n1`, the GFP fluorescence (kMESF) was 7.13 kMESF (inactive).

`CNc1nc(N)c(C(=O)c2ccc(C)c(C)c2)c(Nc2cccc(Cl)c2)n1`: the GFP fluorescence (kMESF) is 4.45 kMESF (inactive).

For the compound `CNc1nc(N)c([N+](=O)[O-])c(Nc2ccccc2F)n1`, the GFP fluorescence (kMESF) is 4.66 kMESF (inactive).

As to `CNc1nc(N)c([N+](=O)[O-])c(Nc2ccccc2Br)n1`, the GFP fluorescence (kMESF) was 4.59 kMESF (inactive).

Take `CNc1nc(NC)c([N+](=O)[O-])c(Nc2cccc(Cl)c2)n1`: the GFP fluorescence (kMESF) was 4.45 kMESF (inactive).

Consider `CNc1nc(N)c([N+](=O)[O-])c(Nc2cccc(Br)c2)n1`, for which the GFP fluorescence (kMESF) is 7.2 kMESF (inactive).

Regarding `CCNc1nc(N)c([N+](=O)[O-])c(Nc2cccc(Cl)c2)n1`, the GFP fluorescence (kMESF) was 12 kMESF (inactive).

The assay is the same for the next values; noted with them: S. cerevisiae MEP2-GFP strain, flow cytometry fluorescence, 3 h; at 300 µM (top of the series).
As to `CNc1nc(N)cc(Nc2ccccc2F)n1`, the GFP fluorescence (kMESF) was 2.73 kMESF (inactive).

Turning to `Cc1cc(Nc2cc(Nc3ccccc3)nc(NCc3ccccc3)n2)n[nH]1`, the GFP fluorescence (kMESF) was 2.46 kMESF (inactive).

For `COC(=O)c1cccc(-c2cc(Nc3cc(C)[nH]n3)nc(NCc3ccccc3)n2)c1`, the GFP fluorescence (kMESF) was 2.46 kMESF (inactive).

Take `CNc1nc(N)cc(Nc2cccc(Cl)c2)n1`: the GFP fluorescence (kMESF) is 2.73 kMESF (inactive).

In the case of `O=[N+]([O-])c1c(NC2CCCCC2)nc(NCc2ccccc2)nc1N1CCOCC1`, the GFP fluorescence (kMESF) is 2.32 kMESF (inactive).

Consider `COc1ccccc1-c1cc(Nc2cc(C)[nH]n2)nc(NCc2ccccc2)n1`, for which the GFP fluorescence (kMESF) was 2.59 kMESF (inactive).

For `CNc1nc(N)cc(Oc2cccc(Cl)c2)n1`, the GFP fluorescence (kMESF) is 2.25 kMESF (inactive).

Regarding `COc1cccc(-c2cc(Nc3cc(C)[nH]n3)nc(NCc3ccccc3)n2)c1`, the GFP fluorescence (kMESF) is 2.66 kMESF (inactive).

A further assay deals with S. cerevisiae MEP2-GFP strain, flow cytometry fluorescence, 3 h. The assay is described as above.
Details: not given
Regarding `CNc1nc(N)c([N+](=O)[O-])c(Nc2cccc(Oc3ccccc3)c2)n1`, the EC50 is 34.2 µM (inactive).

As to `Cc1cc(Nc2cc(-c3ccccc3)nc(NCc3ccccc3)n2)n[nH]1`, the EC50 is 107 µM (inactive).

In the case of `CCNc1nc(NC2CCCCC2)c([N+](=O)[O-])c(N2CCOCC2)n1`, the EC50 is 189 µM (inactive).

Regarding `CCOC(=O)c1c(N)nc(NC)nc1Nc1cccc(F)c1`, the EC50 was 81.8 µM (inactive).

In general, EC50 refers to the concentration that produces a half-maximal response.

The record behind these values is PubChem BioAssay AID504468 (NMMLSC, 2011).
